Test results: patent US5328917A, “Piperidine compounds for treating anoxia, cerebral ischemia migraine or epilepsy” (Novo Nordisk A/S, priority 1990, dated 1994)
Counter-ions that a name gives are not always drawn.

Test system: voltage operated calcium channels
Assay: Inhibition of depolarization-stimulated 45Ca uptake into brain synaptosomes (crude P2 fraction of cerebral cortex)
Type: biochemical, male Wistar rat
Settings: rat cerebral cortex synaptosomes; KCl-depolarized, corrected for basal uptake; 15 s uptake at 37° C.; estimated from dose response curves
Source text: The pharmacological properties of the compounds of the invention can be illustrated by determining their capability to inhibit calcium uptake into brain synaptosomes. Depolarization of neuronal membranes leads to an opening of socalled "voltage operated calcium channels" (VOC) in the membranes which allows a massive influx of calcium from the extracellular space. A crude synaptosomal preparation (socalled P2 fraction) contains small vesicles surrounded by neuronal membrane and it is possible in such a preparation to study a depolarization-induced opening of VOC. In the present model ^45 Ca influx is induced in the synaptosomes by depolarization with elevated potassium concentrations, and the effect of test substances on this stimulated uptake is studied ([…]. and Blaustein, M. P., Mol. […] A male Wistar rat is decapitated and the cerebral cortex removed and homogenized in 10 ml. of ice-cold 0.32M sucrose using a glass homogenizer with a teflon pestle. All subsequent steps for isolation of synaptosomes are done at 0°-4° C. […] This pellet (P2) is resuspended in 0.32M sucrose (5 ml per g of original tissue) with a teflon pestle. […] The tubes are pre-incubated for 30 min on ice and then for 6 min at 37° C. in a water bath. […] The incubation is continued for 15 s. […] The amount of radioactivity on the filter disc is determined by liquid scintillation spectrometry. Test substances are dissolved in 10 ml of 48% ethanol at a concentration of 0.44 mg/ml. Dilution are made in 48% ethanol to give final concentrations of 0.1, 0.3, 1, 3 and 10 μg/ml. Experiments are performed in triplicate. […] The IC50 value is estimated from dose response curves.

Row | SMILES | IC50 (concentration of test substance which inhibits 50% of stimulated uptake of 45Ca) [µg/mL]
1 | CCCCN1CC[C@@H](c2ccc(N(C)C)cc2)[C@H](COc2ccc(C(F)(F)F)cc2)C1.Cl (racemic) [Compound 11, (+-)trans-1-butyl-4-(4-dimethylaminophenyl)-3-(4-trifluoromethylphenoxymethyl)piperidine, hydrochloride] | 4.9
2 | CCCCN1CC[C@@H](c2ccc(N(C)C)cc2)[C@H](COc2ccc3c(c2)OCO3)C1.Cl (racemic) [Compound 15, (+-)trans-1-butyl-4-(4-dimethylaminophenyl)-3-(3,4-methylenedioxyphenoxymethyl)piperidine, hydrochloride] | 5.0
3 | CCCCN1CC[C@@H](c2ccc(N(C)C)cc2)[C@H](COc2cccc(C(F)(F)F)c2)C1.Cl (racemic) [Compound 17, (+-)trans-1-butyl-4-(4-dimethylaminophenyl)-3-(3-trifluoromethylphenoxymethyl)piperidine, hydrochloride] | 7.4
4 | CCCCN1CC[C@@H](c2ccc(N(C)C)cc2)[C@H](COc2ccc(Cl)cc2)C1 (relative stereo) [Compound 51, (+-) trans 1-butyl-3-(4-chlorophenoxymethyl)-4-(4-dimethylaminophenyl) piperidine, hydrochloride] | 3.8
5 | CCCCN1CC[C@@H](c2ccc(N(C)C)cc2)[C@H](COc2ccc(Cl)c(Cl)c2)C1 (relative stereo) [Compound 52, (+-) trans 1-butyl-3-(3,4-dichlorophenoxymethyl) 4-(4-dimethylaminophenyl)piperidine, HCl] | 2.8
6 | CCCCN1CC[C@@H](c2ccc(N(C)C)cc2)[C@H](COc2ccc([N+](=O)[O-])cc2)C1 (relative stereo) [Compound 57, (+-) trans 1-butyl-4-(4-dimethylaminophenyl)-3-(4-nitrophenoxymethyl) piperidine, HCl] | 3.2
7 | O=[N+]([O-])c1ccc([C@@H]2CCNC[C@H]2COc2cccc(C(F)(F)F)c2)cc1 (single isomer, unassigned) [Compound 9, (31)trans-4-(4-nitrophenyl)-3-(3-trifluoromethylphenoxymethyl)piperidine, hydrochloride] | 7.2
8 | CCCCCN1CC[C@@H](c2ccc(N)cc2)[C@H](COc2ccc3c(c2)OCO3)C1.Cl (single isomer, unassigned) [Compound 10, (+)trans-4-(4-aminophenyl)-3-(3,4-methylenedioxyphenoxymethyl)-1-pentylpiperidine, hydrochloride] | 8.9
9 | CCCCCN1CC[C@@H](c2ccc(F)cc2)[C@H](COCc2ccc(C(F)(F)F)cc2)C1 (single isomer, unassigned) [Compound 36, (-) trans-4-(4-fluorophenyl)-1-pentyl-3-(4-trifluoromethylbenzyloxymethyl)-piperidine, HCl] | 6.4
10 | CCCCCN1CC[C@@H](c2ccc(F)cc2)[C@H](COCc2cccc(C(F)(F)F)c2)C1 (single isomer, unassigned) [Compound 60, (-)trans-4-(4-fluorophenyl)-1-pentyl-3-(3-trifluoromethylbenzyloxymethyl)-piperidine, HCl] | 5.5
11 | CCCCN1CCC(c2ccccc2)C(CNCc2ccc(OC)cc2)C1 (centres unmarked) [Compound 20, 1-butyl-3-(4-methoxybenzylaminomethyl)-4-phenylpiperidine, HCl] | 2.7
12 | CCCCN1CCC(c2ccccc2)C(CNc2ccc(C(F)(F)F)cc2)C1 (centres unmarked) [Compound 22, 1-butyl-3-(4-trifluoromethylphenylaminomethyl)-4-phenylpiperidine, HCl] | 4

Same assay, conditions: rat cerebral cortex synaptosomes; KCl-depolarized, corrected for basal uptake; 15 s uptake at 37° C.; estimated from dose response curves; dihydrochloride

Row | SMILES | IC50 (concentration of test substance which inhibits 50% of stimulated uptake of 45Ca) [µg/mL]
13 | CCCCN1CC[C@@H](c2ccc(N(C)C)cc2)[C@H](COc2ccc(C(F)(F)F)cc2)C1.Cl.Cl (single isomer, unassigned) [Compound 64, (+)-trans-1-butyl-4-(4-dimethylaminophenyl)-3-(4-trifluoromethylphenoxymethyl)piperidine dihydrochloride] | 4.2
14 | CCCCN1CC[C@@H](c2ccc(N(C)C)cc2)[C@H](COc2ccc(C(F)(F)F)cc2)C1.Cl.Cl (single isomer, unassigned) [Compound 65, (-)-trans-1-butyl-4-(4-dimethylaminophenyl)-3-(4-trifluoromethylphenoxymethyl)piperidine dihydrochloride] | 6.5

Test system: peripheral calcium uptake, e.g. in blood vessels and the heart
Assay: not given
Settings: well known calcium antagonists; cited from earlier work

Row | SMILES | activity against peripheral calcium uptake
15 | COc1ccc([C@@H]2Sc3ccccc3N(CCN(C)C)C(=O)[C@@H]2OC(C)=O)cc1 [Diltiazem] | have activity against peripheral calcium uptake
16 | COC(=O)C1=C(C)NC(C)=C(C(=O)OC)C1c1ccccc1[N+](=O)[O-] [Nifedipine] | have activity against peripheral calcium uptake
17 | COc1ccc(CCN(C)CCCC(C#N)(c2ccc(OC)c(OC)c2)C(C)C)cc1OC (centres unmarked) [Verapamil] | have activity against peripheral calcium uptake
